In experiment [1] the test system is Collagen IV. Kind of experiment: Immunohistochemical staining of Collagen IV on formalin fixed paraffin embedded mouse brain sections after antigen retrieval with formaldehyde scavengers and enhancer. Also noted: key: − being non-reactive; Immunoreactivity was scored on a scale of − to +++; Immunoreactivity was scored on a scale of − to +++; +++ being highly reactive. The note with it: 45 minutes at 95° C. As for the experimental part: 12-month-old C57Bl6J mice were housed under controlled environment conditions on a condition al 12 hour light dark cycle. Following sacrifice, brains were post-fixed in 4% paraformaldehyde for 72 hours at […] and then transferred to 70% ethanol solution where they were stored at 4° C. Tissue was paraffin-processed using convention dehydration and embedding, and then sectioned at 5 μm intervals.
Tissues were deparaffinized and rehydrated. Slides were placed in a plastic Coplin jar containing either distilled water or a combination of formaldehyde scavengers in combination with an enhancer. Jars were covered with a loose fitting screw cap and heated in a pressure cooker for 45 minutes at 95° C. After heating, the Coplin jars were removed and allowed to cool and rinsed in TBST for five minutes.
Immunohistochemical staining was performed using a three-step immunostaining technique using the ABC method. Briefly, all incubations were performed as follows: 1) primary antibodies were incubated overnight at 4° C., 2) secondary antibodies were incubated for 10 minutes at room temperature, 3) streptavidin-conjugated enzyme was incubated for 10 minutes at room temperature, 4) peroxidase substrate was incubated for 1 minute.

Experiment [2] concerns collagen IV.
In a further experiment the test system is RNA. In words: Recovery of RNA from formalin-fixed paraffin-embedded tissue samples (FIG. 30).
The subject of another experiment is Angiotensin I. In words: Mass spectrometry of formalin treated Angiotensin I after heating with aldehyde scavenging compounds. The note with it: 5% compound, 95° C., 45 minutes. The protocol:
Angiotensin I is treated with formalin at room temperature for 48 hours. […] Mass-spectrometry is used to analyze the compositions of the Angiotensin I before and after treatment by each compound. Samples of Angiotensin I before (FIG. 11A) and after (FIG. 11B) formalin treatments are used as the controls for the experiment. Peaks at m/z 1296 represent unmodified Angiotensin I. Peaks at m/z 1308 represent Angiotensin I with 1 methylene unit. Peaks at m/z 1320 represent Angiotensin I with 2 methylene units. Peaks at m/z 1338 represent Angiotensin I with 1 methylene unit and 1 hydroxymethylene group. Peaks at m/z 1350 represent Angiotensin I with 2 methylene units and 1 hydroxymethylene group.

A further experiment concerns GFAP. In words: Microscope images of GFAP immunostaining after antigen retrieval (FIGS. 15-18).
A further experiment has as its system blood vessels. In words: Antigen retrieval in paraformaldehyde fixed vascular tissue, visualization of blood vessels. Particulars: paraformaldehyde fixed tissue heated in solution of compound (FIGS. 4A-4E). From the text: Paraformaldehyde fixed tissue samples are heated in solutions of compounds prepared as described in Example 1 and the blood vessels in the tissue are visualized.

Experiment [3] concerns Collagen IV. In words: Immunohistochemical staining of Collagen IV after antigen retrieval with 0.05% maleic acid and cooling in a second solution. Particulars: for immunostaining of Collagen IV after antigen retrieval with maleic acid and cooling to room temperature: FIGS. 31A-31C, compared to dH2O; for Result (immunoreactivity, Collagen IV staining): Table 9, retrieval with 0.05% maleic acid 45 minutes at 95° C., then cooling to room temperature in the named solution (10% guanidine or 2,2,2-trifluoroethanol in water). Further details: species or system mouse; key to Result (immunoreactivity, Collagen IV staining): − being non-reactive; Immunoreactivity was scored on a scale of − to +++; Immunoreactivity was scored on a scale of − to +++; +++ being highly reactive. The protocol:
12-month-old […] mice were housed under controlled environment conditions on a condition al 12 hour light dark cycle. Following sacrifice, brains were post-fixed in 4% paraformaldehyde for 72 hours at 4° C. and then transferred to 70% ethanol solution where they were stored at 4° C. Tissue was paraffin-processed using convention dehydration and embedding, and then sectioned at 5 μm intervals. Tissues were deparaffinized and rehydrated. […] Jars were covered with a loose fitting screw cap and heated in a pressure cooker for 45 minutes at 95° C. After heating, the Coplin jars were removed and slides were allowed to cool to room temperature in either 10% guanidine or 2,2,2-trifluoroethanol in water and rinsed in TBST for five minutes. Immunohistochemical staining was performed using a three-step immunostaining technique using the ABC method. Briefly, all incubations were performed as follows: 1) primary antibodies were incubated overnight at 4° C., 2) secondary antibodies were incubated for 10 minutes at room temperature, 3) streptavidin-conjugated enzyme was incubated for 10 minutes at room temperature, 4) peroxidase substrate was incubated for 1 minute.

Setting [4] is: Table 2, aniline compounds, FFPE mouse brain sections.
[5] abbreviates: microscope images, figure legends.
Setting [6] is: compared to control buffer (FIG. 30).

Each structure is given as a SMILES string. Read-outs that look alike come from different tables or passages of the source.

With `Nc1ccc(O)cc1` [4-Aminophenol], the “Result (immunoreactivity, Collagen IV staining)” value (from here on “Result”) with Collagen IV [1] (setting [4]) is “++”. Also, in the experiment with collagen IV [2] (setting [5]), the “immunostaining of Collagen IV after antigen retrieval” value is reported as “enhanced immunostaining”. Besides, the “recovery of RNA from formalin-fixed paraffin-embedded tissue samples” value (“recovery of RNA” for short) in the experiment on RNA (setting [6]) is “enhanced recovery of RNA”.
Turning to `Cc1ncc(CO)c(CN)c1O` [pyridoxamine], in the experiment with collagen IV [2] (setting [5]), the “immunostaining of Collagen IV after antigen retrieval” value was “enhanced immunostaining”.
As to `COc1ccc(N)c(C(=O)O)c1` [2-Amino-5-methoxybenzoic acid], in the experiment on Collagen IV [1] (setting [4]), the “Result” value is listed as “−”. In addition, the “recovery of RNA” value in the experiment on RNA (setting [6]) is on record as “enhanced recovery of RNA”.
For `Nc1ccc(N)cc1` [p-Phenylenediamine], in the experiment with Collagen IV [1] (setting [4]), the “Result” value is on record as “+”. In addition, the “immunostaining of Collagen IV after antigen retrieval” value in the experiment with collagen IV [2] was “enhanced immunostaining”.
Consider `N[C@@H](CS)C(=O)O` [cysteine], for which the “retrieval of formalin adducts of Angiotensin I” value (from here on “retrieval … of Angiotensin I”) in the experiment with Angiotensin I is “significant retrieval of formalin adducts”. Further, the “immunostaining of GFAP after antigen retrieval” value (“immunostaining of GFAP” for short) in the experiment on GFAP (setting [5]) is recorded as “enhanced immunostaining”.
As for `Sc1nc(S)nc(S)n1` [1,3,5-triazine-2,4,6-trithiol], the “immunostaining of GFAP” value with GFAP (setting [5]) is reported as “enhanced immunostaining”.
As for `CCCC(N)O` (stereo not drawn) [1-amino-1-butanol], in the experiment on collagen IV [2] (setting [5]), the “immunostaining of Collagen IV after antigen retrieval” value was “enhanced immunostaining”.
On to `Nc1ccc(S(=O)(=O)O)cc1` [Sulfanilic acid], for which the “Result” value in the experiment with Collagen IV [1] (setting [4]) is “++”. The “immunostaining of Collagen IV after antigen retrieval” value in the experiment on collagen IV [2] (setting [5]) was “enhanced immunostaining”. Also, in the experiment with RNA (setting [6]), the “recovery of RNA” value is given as “enhanced recovery of RNA”.
With `NOCc1ccccc1` [1% O-Benzylhydroxylamine, O-Benzylhydroxylamine], the “Result” value in the experiment on Collagen IV [1] (Table 6, 1% O-benzylhydroxylamine alone or with aniline, concentrations in label) is on record as “+”; in the experiment on Collagen IV [1] (Table 7, 0.5% O-benzylhydroxylamine alone or with aniline, concentrations in label), “+”. The “immunostaining of Collagen IV after antigen retrieval” value in the experiment on collagen IV [2] (setting [5]) is given as “enhanced immunostaining”. The “recovery of RNA” value with RNA (setting [6]) is “enhanced recovery of RNA”.
For `CC(=O)CC(N)=O` [acetoacetamide], the “immunostaining of Collagen IV after antigen retrieval” value in the experiment on collagen IV [2] (setting [5]) was “enhanced immunostaining”.
Consider `NCCS` [cysteamine], for which, in the experiment on GFAP (setting [5]), the “immunostaining of GFAP” value was “enhanced immunostaining”.
With `O=C(OC[C@H]1O[C@@H](OC(=O)c2cc(O)c(O)c(OC(=O)c3cc(O)c(O)c(O)c3)c2)[C@H](OC(=O)c2cc(O)c(O)c(OC(=O)c3cc(O)c(O)c(O)c3)c2)[C@@H](OC(=O)c2cc(O)c(O)c(OC(=O)c3cc(O)c(O)c(O)c3)c2)[C@@H]1OC(=O)c1cc(O)c(O)c(OC(=O)c2cc(O)c(O)c(O)c2)c1)c1cc(O)c(O)c(OC(=O)c2cc(O)c(O)c(O)c2)c1` [tannic acid], the “immunostaining of Collagen IV after antigen retrieval” value in the experiment with collagen IV [2] (setting [5]) is reported as “enhanced immunostaining”.
On the same count and under the same terms, the value for `O=C1CCC(=O)N1` [succinimide] was “enhanced immunostaining”.
Turning to `O=C1CCC(=O)O1` [succinic anhydride, reference compound], in the experiment with blood vessels, the “antigen retrieval with visualization of the blood vessels” value (“antigen retrieval with visualization” for short) was “no vasculature is visible”.
For the compound `NO` [1% Hydroxylamine, Hydroxylamine], the “Result” value is on record as “+” with Collagen IV [1] (Table 3, 1% hydroxylamine alone or with 4-aminophenol, concentrations in label); “+” in the experiment with Collagen IV [1] (Table 4, 1% hydroxylamine alone or with aniline, concentrations in label); “+” in the experiment with Collagen IV [1] (Table 5, 0.5% hydroxylamine alone or with aniline, concentrations in label). In the experiment with collagen IV [2] (setting [5]), the “immunostaining of Collagen IV after antigen retrieval” value was “enhanced immunostaining”. Further, the “recovery of RNA” value in the experiment with RNA (setting [6]) was “enhanced recovery of RNA”. Also, the “retrieval … of Angiotensin I” value with Angiotensin I is on record as “significant retrieval of formalin adducts”.
`CC1=C(C)C(=O)OC1=O` [2,3-dimethylmaleic anhydride]: the “antigen retrieval with visualization” value with blood vessels is recorded as “successful antigen retrieval”.
In the case of `CC1(C)CC(=O)CC(=O)C1` [dimedone, 5,5-dimethyl-1,3-cylohexanedione], the “immunostaining of Collagen IV after antigen retrieval” value in the experiment with collagen IV [2] (setting [5]) is listed as “enhanced immunostaining”.
Consider `Nc1ccccc1` [Aniline], for which, in the experiment with Collagen IV [1] (setting [4]), the “Result” value is listed as “++”. The “immunostaining of Collagen IV after antigen retrieval” value in the experiment on collagen IV [2] (setting [5]) is listed as “enhanced immunostaining”. For the same compound, the “recovery of RNA” value with RNA (setting [6]) is “enhanced recovery of RNA”.
As to `O=S([O-])O.[Na+]` [sodium bisulfite], the “immunostaining of GFAP” value in the experiment with GFAP is reported as “enhanced immunostaining”.
For the compound `OCC(F)(F)F` [2,2,2-Trifluoroethanol], in the experiment on Collagen IV [3], the “immunostaining of Collagen IV after antigen retrieval with maleic acid and cooling to room temperature” value is reported as “enhanced immunostaining”; the “Result” value was “++”.
In the case of `N=C(N)N` [Guanidine], in the experiment on collagen IV [2] (setting [5]), the “immunostaining of Collagen IV after antigen retrieval” value is reported as “enhanced immunostaining”. In the experiment with Angiotensin I, the “amount of Angiotensin I with 2 methylene units (m/z 1320)” value (shortened to “amount of Angiotensin I”) is “does not exhibit any impact”; the “content of Angiotensin I with 1 methylene unit and 1 hydroxymethylene group (m/z 1338)” value is recorded as “minimal ability to retrieve”. Also, in the experiment on Collagen IV [3], the “immunostaining of Collagen IV after antigen retrieval with maleic acid and cooling to room temperature” value was “enhanced immunostaining”; the “Result” value is given as “++”.
With `COc1ccc(N)cc1` [p-Anisidine], the “Result” value with Collagen IV [1] (setting [4]) is “++”. Besides, in the experiment with collagen IV [2], the “immunostaining of Collagen IV after antigen retrieval” value is listed as “enhanced immunostaining”. Besides, the “recovery of RNA” value in the experiment on RNA was “enhanced recovery of RNA”.
As to `CCON` [O-ethylhydroxylamine], the “immunostaining of Collagen IV after antigen retrieval” value in the experiment with collagen IV [2] (setting [5]) is “enhanced immunostaining”. Moreover, the “recovery of RNA” value in the experiment on RNA (setting [6]) is given as “enhanced recovery of RNA”.
For `O=C1CCCN1` [2-pyrrolidinone], the “immunostaining of Collagen IV after antigen retrieval” value with collagen IV [2] (setting [5]) is reported as “enhanced immunostaining”.
For the compound `O=C1CC(=O)NC(=O)N1` [barbituric acid], the “immunostaining of Collagen IV after antigen retrieval” value in the experiment on collagen IV [2] is listed as “enhanced immunostaining”.
On to `NC(=O)C[C@H](N)C(=O)O` [L-asparagine], for which the “immunostaining of Collagen IV after antigen retrieval” value with collagen IV [2] (setting [5]) is “enhanced immunostaining”.
Consider `O=C1NCCN1` [imidazolidone], for which, in the experiment with Angiotensin I, the “amount of Angiotensin I” value is reported as “significantly reduce” and the “content of unmodified Angiotensin I (m/z 1296)” value is reported as “higher content of unmodified Angiotensin I”.
`O=S([O-])S(=O)(=O)[O-].[Na+].[Na+]` [sodium metabisulfite]: the “immunostaining of GFAP” value in the experiment with GFAP (setting [5]) is reported as “enhanced immunostaining”.
Consider `O=C(O)/C=C/C(=O)O` [fumaric acid, reference compound], for which, in the experiment with blood vessels, the “antigen retrieval with visualization” value was “significant reduction in activity”.
Regarding `O=C(O)CC(O)(CC(=O)O)C(=O)O` [citric acid, reference compound], in the experiment on Angiotensin I, the “amount of Angiotensin I” value is on record as “significantly reduce”; the “content of Angiotensin I with 1 methylene unit and 1 hydroxymethylene group (m/z 1338)” value was “significantly reduce”; the “retrieval … of Angiotensin I” value is listed as “significant retrieval of formalin adducts”.
With `NOCC(=O)O` [O-(carboxymethyl)hydroxylamine], the “immunostaining of Collagen IV after antigen retrieval” value in the experiment on collagen IV [2] (setting [5]) is reported as “enhanced immunostaining”. Moreover, the “recovery of RNA” value in the experiment on RNA (setting [6]) is recorded as “enhanced recovery of RNA”.
As for `CC(N)(CO)CO` [2-amino-2-methyl-1,3-propanediol], the “immunostaining of Collagen IV after antigen retrieval” value in the experiment on collagen IV [2] (setting [5]) is “enhanced immunostaining”.
`CCOc1ccc(N)cc1` [4-Ethoxyaniline]: in the experiment with Collagen IV [1] (setting [4]), the “Result” value was “+”. The “immunostaining of Collagen IV after antigen retrieval” value in the experiment on collagen IV [2] is listed as “enhanced immunostaining”.

The values above are taken from patent publication US10746637B2, “Aldehyde scavenging agent for retrieving elements from fixed tissue” (University of Houston System, priority 2013, dated 2020).
